Results reported in patent US20190352276A1, “INHIBITORS OF BRUTON'S TYROSINE KINASE” (Joint Stock Company "Biocad", priority 2016, published 2019).
Read-outs that look alike come from different tables or passages of the source.

Assays:
[1] = Permeability through the monolayer of Caco-2 cells; type: in vitro ADME; settings: human; for Papp A→B at 2 h, 10 μM / Papp B→A at 2 h, 10 μM: 2 h at 37° C.; for efflux ratio at 2 h, 10 μM: read-out: efflux (Papp B-A/Papp A-B)
In short: (§1)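 Caco-2 monolayers grown 21 days on 0.4 μm transwell filters, integrity checked with Lucifer Yellow. Compounds at 10 μM were added apically at pH 6.5 (A→B) or basolaterally at pH 7.4 with 1% BSA (B→A) and sampled after 2 h. Concentrations by HPLC; Papp calculated, efflux ratio as Papp B-A/Papp A-B.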

[2] = system: Mino (mantle cell lymphoma); test: Antiproliferative activity, Mino cells (Alamar Blue); type: cell-based; settings: Homo sapiens
In short: (§2)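 Cells grown in RPMI-1640 with 10% FBS and gentamicin, seeded ~3*10^4 cells/well, then exposed to compounds (DMSO <1% final) for 72 h at 37 °C, 5% CO2. Viability by Alamar Blue after 14-16 h, fluorescence Ex 540/Em 590 nm; IC50 from four-parameter logistic fit.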

[3] = Chemical stability in artificial gastric fluid (SGF without enzymes); settings: 10 μM in SGF without enzymes, pH=1.4, 37° C.
[4] = system: DOHH2 (follicular lymphoma); test: Antiproliferative activity, DOHH2 cells (Alamar Blue); type: cell-based; settings: Homo sapiens, DOHH-2, Table 10, 72 h, average of several tests
In short: as §2

[5] = Stability in human blood plasma; settings: 10 μM in pooled human blood plasma, incubated 4 hours at 37° C.
Description: To assess the blood plasma stability of the drug candidates, we used pooled human blood plasma taken from ten healthy donors. The initial solution (10 Mm in DMSO) was diluted with pooled blood plasma to 10 μM (test solution). The test solution had been incubated for 4 hours in a dry block heater at 37° C. We determined peak areas of the compounds corresponding to the start of the test (before incubating) and the end of the test (after incubating in a dry block heater at 37° C.) by HPLC using Agilent1200 chromatograph (Agilent, USA) with preliminary protein precipitation with acetonitrile. We used gradient elution (1 mL/min flow rate). We determined amount of substance in the sample in % after incubation.
We evaluated the stability of the compounds.

[6] = system: Z-138 (mantle cell lymphoma); test: Antiproliferative activity, Z-138 cells (Alamar Blue); type: cell-based; settings: Homo sapiens
In short: as §2

[7] = system: HepG2 cells (hepatocellular carcinoma); test: General cytotoxicity on HepG2 cells (CC50; therapeutic index CC50 HepG2/IC50 Mino); type: cell-based; settings: therapeutic index
In short: (§3)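 Cells seeded at 2*10^4 per well in DMEM, compounds added after 24 h at 200 μM to 4 μM final and incubated 72 h. Viability read with Alamar Blue to derive CC50; therapeutic index is CC50 (HepG2) divided by IC50 (Mino).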

[8] = as above; type: cell-based; settings: human, HepG2 cells (hepatocellular carcinoma), 72 hours, Alamar Blue
In short: as §3

[9] = target: T1, recombinant Btk kinase enzyme (Homo sapiens, UniProt Q06187); test: In vitro inhibition of Btk kinase activity (ADP-Glo); type: biochemical; settings: read-out: IC50 kinase BTK
T1 construct: purchased SignalChem B10-10H
Description: To assess Btk kinase activity described herein, SignalChem kinase system was used. Btk kinase activity was determined in the reaction between recombinant Btk kinase enzyme (SignalChem #B10-10H) and Poly (4:1 Glu, Tyr) peptide substrate in the presence of the inhibitor.
(§4) Staurosporine (Abcam Biochemicals, ab146588) was used as a reference inhibitor and 0.1% DMSO in the reaction buffer—as a negative control. The solution of 0.5 mg/mL peptide substrate and 50 &M ATP in the same buffer were added; the solution was incubated for 180 minutes at 37° C. To detect the amount of ATP taken up during the kinase reaction, the equivalent amount of ADP (from the ADP Glo Detection Kit (Promega, #V9101)) was used according to the protocol. The reaction mixture was equilibrated to room temperature. 25 µL of ADP-Glo Reagent were added into each well; the plate was incubated for 40 minutes. 50 μL of Kinase Detection Reagent were added; the plate was incubated for 30 minutes. The luminescence was measured with multimode plate reader (Tecan Infinite M200Pro, Switzerland). IC50 values were calculated using Magellan 7.2 software (Tecan, Switzerland) approximating experimental points by four-parameter logistic model with the optimization by Levenberg-Marquardt.

Caco-2 cells = test: Permeability through the monolayer of Caco-2 cells; type: in vitro ADME
In short: as §1

EGFR = target: T2, EGFR (Homo sapiens, UniProt P00533); test: In vitro kinase panel: EGFR; type: biochemical; settings: Table 9 kinase panel
T2 construct: purchased SignalChem E10-11G
Description: as §4, with “The measurements were carried out in a 25 μL reaction volume using a 96-well plate (Corning, #3642). The kinase enzyme and inhibitor were pre-incubated for 10 minutes in the reaction buffer containing 25 mM of MOPS (pH 7.2), 12.5 mM of 0-glycerophosphate, 27 mM of MgCl2, 2 mM of MnCl2, 5 mM of EGTA, 2 mM of EDTA, 0.3 mM of DTT, and 1.2 mg/mL of bovine serum albumin. Staurosporine” for “Staurosporine”
For active compounds selected by screening using the target enzyme BTK, the values of IC50 were determined on a kinase panel: EGFR (SignalChem, #E10-11G), ITK (SignalChem, #I13-10G) and TEC (SignalChem, #T03-10G).

[10] = Table 10, 72 h, average of several tests
[11] = Table 10, average of several tests

T1 sequence (Q06187 whole entry): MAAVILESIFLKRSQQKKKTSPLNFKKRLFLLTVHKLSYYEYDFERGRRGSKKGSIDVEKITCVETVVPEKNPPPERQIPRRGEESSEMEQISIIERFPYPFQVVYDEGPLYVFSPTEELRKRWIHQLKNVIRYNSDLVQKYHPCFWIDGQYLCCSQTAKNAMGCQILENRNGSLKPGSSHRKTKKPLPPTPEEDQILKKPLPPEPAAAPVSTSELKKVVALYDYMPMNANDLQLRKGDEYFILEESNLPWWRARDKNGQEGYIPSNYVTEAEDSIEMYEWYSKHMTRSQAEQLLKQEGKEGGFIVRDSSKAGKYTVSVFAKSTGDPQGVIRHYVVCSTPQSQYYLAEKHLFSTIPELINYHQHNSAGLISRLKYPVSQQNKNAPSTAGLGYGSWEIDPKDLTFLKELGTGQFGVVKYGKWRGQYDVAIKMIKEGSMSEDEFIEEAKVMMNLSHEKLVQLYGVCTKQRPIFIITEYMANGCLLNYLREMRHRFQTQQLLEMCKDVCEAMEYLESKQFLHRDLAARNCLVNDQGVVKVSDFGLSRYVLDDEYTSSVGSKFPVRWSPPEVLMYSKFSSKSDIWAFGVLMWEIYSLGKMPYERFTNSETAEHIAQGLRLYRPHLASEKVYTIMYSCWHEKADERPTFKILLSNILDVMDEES
T2 sequence (P00533 672-1210 limits assumed): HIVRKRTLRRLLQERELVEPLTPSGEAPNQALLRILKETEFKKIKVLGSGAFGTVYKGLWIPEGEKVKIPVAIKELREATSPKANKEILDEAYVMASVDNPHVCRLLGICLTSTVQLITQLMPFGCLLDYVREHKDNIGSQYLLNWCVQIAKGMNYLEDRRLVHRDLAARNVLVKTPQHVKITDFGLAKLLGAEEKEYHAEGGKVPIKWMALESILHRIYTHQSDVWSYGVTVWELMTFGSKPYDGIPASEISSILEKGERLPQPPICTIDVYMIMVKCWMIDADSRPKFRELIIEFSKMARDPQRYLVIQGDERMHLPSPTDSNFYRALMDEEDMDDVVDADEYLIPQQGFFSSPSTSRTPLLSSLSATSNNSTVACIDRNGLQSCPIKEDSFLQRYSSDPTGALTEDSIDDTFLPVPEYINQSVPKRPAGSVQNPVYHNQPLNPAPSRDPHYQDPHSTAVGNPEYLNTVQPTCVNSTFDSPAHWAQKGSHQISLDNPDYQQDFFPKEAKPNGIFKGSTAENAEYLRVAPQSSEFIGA

Structure (SMILES)	Papp A→B at 2 h, 10 μM [1] [×10⁻⁶ cm/s]	Papp B→A at 2 h, 10 μM [1] [×10⁻⁶ cm/s]	efflux ratio at 2 h, 10 μM [1]	IC50 [2, 10] [µM]	Amount of substance in the sample in % (chemical stability) [3] [%]	IC50 [4] [µM]	Amount of substance in the sample, % (stability in human blood plasma) [5] [%]	IC50 [6, 10] [µM]	CC50 (HepG2)/IC50 (Mino) ([7]; Table 10)	CC50 at 72 h [8, 11] [µM]	IC50 ([9]; Table 8, ADP-Glo) [nM]	efflux (Papp B-A/Papp A-B) (Caco-2 cells)	IC50 (EGFR) [nM]	IC50 ([2]; Table 11, 72 h) [µM]	IC50 ([6]; Table 11, 72 h) [µM]	CC50 (HepG2)/IC50 (Mino) ([7]; Table 11)	CC50 at 72 h ([8]; Table 11) [µM]	IC50 ([9]; Table 9 kinase panel) [nM]
C=CC(=O)N1CC[C@H](n2nc(-c3ccc(Oc4ccncc4)cc3)c3cncc(Cl)c32)C1 [BCD-BTK-266, (S)-1-(3-(7-chloro-3-(4-(pyridin-4-yloxy)phenyl)-1H-pyrazolo[4,3-c]pyridin-1-yl)pyrrolidin-1-yl)prop-2-en-1-one]	9.5	2.2	0.23	3.61	100	4.99	87.2	12.6	3.33	12	13.2							
C=CC(=O)N1CCC[C@@H](n2nc(-c3ccc(C(=O)Nc4cc(C(F)(F)F)ccn4)cc3)c3cncc(Cl)c32)C1 [BCD-BTK-210, (R)-4-(1-(1-acryloylpiperidin-3-yl)-7-chloro-1H-pyrazolo[4,3-c]pyridin-3-yl)-N-(4-(trifluoromethyl)pyridin-2-yl)benzamide]	11.9	0.21										0.02						
C=CC(=O)N1CCC[C@@H](n2nc(-c3ccc(C(=O)Nc4cccc(F)n4)cc3)c3cncc(C#N)c32)C1 [BCD-BTK-223, 4-{7-cyano-1-[(3R)-1-(prop-2-enoyl)piperidin-3-yl]-1H-pyrazolo[4,3-c]pyridin-3-yl}-N-(6-fluoropyridin-2-yl)benzamide]	5.9	0.3			96.7							0.05						
C=CC(=O)N1CCC[C@@H](n2nc(-c3ccc(Oc4ccncc4)cc3)c3c(N)ncc(C#N)c32)C1 [BCD-BTK-134, (R)-1-(1-acryloylpiperidin-3-yl)-4-amino-3-(4-(pyridin-4-yloxy)phenyl)-1H-pyrazolo[4,3-c]pyridin-7-carbonitrile]	25.8	12	0.4										127	11.6	21.2	5.80	64	1.16
C=CC(=O)N1CCC[C@@H](n2nc(-c3ccc(Oc4cccnc4C#N)cc3)c3c(N)ncc(Cl)c32)C1 [BCD-BTK-236, 3-(4-{4-amino-7-chloro-1-[(3R)-1-(prop-2-enoyl)piperidin-3-yl]-1H-pyrazolo[4,3-c]pyridin-3-yl}phenoxy) pyridine-2-carbonitrile]	6.51	2.87	0.44	8.93	100	3.79	96.8	11.1	3.03	27.1	17.4							
C=CC(=O)N1CCC[C@@H](n2nc(-c3ccc(Oc4ccncc4)cc3)c3c(N)nccc32)C1 [BCD-BTK-241, (R)-1-(1-acryloylpiperidin-3-yl)-4-amine-3-(4-(pyridin-4-yloxy)phenyl)-1H-pyrazolo[4,3-c]pyridine]				21.3		11.5		15.5	2.13	45.4	10		25.2					
C=CC(=O)N1CCC[C@@H](n2nc(-c3cnc(C(=O)Nc4ccccn4)nc3)c3cncc(Cl)c32)C1 [BCD-BTK-229, (R)-5-(1-(1-acryloylpiperidin-3-yl)-7-chloro-1H-pyrazolo[4,3-c]pyridin-3-yl)-N-(pyridin-2-yl)pyrimidine-2-carboxamide]	10.7	12.2	1.14	36.3	99.8	41.2	83.5	77.1	>2.75	> 100	43.9							
